For data set [1] the following is noted: Liquid; for mass density: 101.33 kPa, Vibrating tube method; for vapor or sublimation pressure: Closed cell (Static) method.
Data set [2] in a line: refractive index (Na D-line) (dimensionless). The conditions noted are these: 101.33 kPa, Liquid, Standard Abbe refractometry.

Numbers after ± are expanded uncertainties.

One may read the mass density as the mass of a sample divided by its volume. The refractive index is a measure of how strongly the sample bends light. With `OCC(F)(F)C(F)(F)C(F)(F)F` [2,2,3,3,4,4,4-heptafluorobutanol], the mass density in data set [1] (293.15 K) is recorded as 1580 ± 2 kg/m3. The refractive index in data set [2] (293.15 K) is recorded as 1.264 ± 0.001.

Regarding `CC1CCCO1` (stereo not given) [2-methyltetrahydrofuran], the mass density in data set [1] (293.15 K) was 855 ± 1 kg/m3. Moreover, the refractive index in data set [2] (294.15 K) was 1.405 ± 0.001.

`C1CCCCC1` [cyclohexane]: in data set [1] (298.15 K), the mass density is given as 775 ± 1 kg/m3. Also, the refractive index in data set [2] (293.15 K) was 1.423 ± 0.001.

As a reminder, the vapor or sublimation pressure is the pressure of vapour in equilibrium with the condensed phase. Consider `FC(F)=C(F)C(F)(F)F` [hexafluoropropene], for which the “vapor or sublimation pressure” value in data set [1] (302.94 K) was determined as 838 ± 7 kPa; in data set [1] (312.91 K), 1094 ± 7 kPa; in data set [1] (322.94 K) it was 1407 ± 8 kPa; in data set [1] (332.94 K) it was 1783 ± 8 kPa; in data set [1] (342.92 K), 2225 ± 8 kPa.

For the compound `CCCCCC` [hexane], in data set [1] (298.15 K), the mass density is reported as 654 ± 1 kg/m3. The refractive index in data set [2] (298.15 K) is given as 1.375 ± 0.001.

Turning to `CC1CCCCC1` [methylcyclohexane], the mass density in data set [1] (293.15 K) is reported as 769 ± 1 kg/m3. Moreover, the refractive index in data set [2] (293.15 K) is 1.423 ± 0.001.

Values taken from the NIST ThermoML archive (doi:10.1021/acs.jced.9b00441).
